Read-outs that look alike come from different tables or passages of the source.

Assay [1] has as its system panel of 21 receptors, ion channels and neurotransmitter transporters. The experiment in a line: Panel of 21 receptors, ion channels and neurotransmitter transporters. In kind it is binding. Particulars: 10 μM; data not shown.
The target of assay [2] is electric eel acetylcholinesterase (Electrophorus electricus, UniProt O42275). The experiment in a line: biochemical.
The target of another assay is T1, brain FAAH activity (Rattus norvegicus, UniProt P97612).
T1 construct: from tissue; host or cells: rat brain (membrane fraction of homogenate; Wistar rats)
T1 sequence (P97612 1-579): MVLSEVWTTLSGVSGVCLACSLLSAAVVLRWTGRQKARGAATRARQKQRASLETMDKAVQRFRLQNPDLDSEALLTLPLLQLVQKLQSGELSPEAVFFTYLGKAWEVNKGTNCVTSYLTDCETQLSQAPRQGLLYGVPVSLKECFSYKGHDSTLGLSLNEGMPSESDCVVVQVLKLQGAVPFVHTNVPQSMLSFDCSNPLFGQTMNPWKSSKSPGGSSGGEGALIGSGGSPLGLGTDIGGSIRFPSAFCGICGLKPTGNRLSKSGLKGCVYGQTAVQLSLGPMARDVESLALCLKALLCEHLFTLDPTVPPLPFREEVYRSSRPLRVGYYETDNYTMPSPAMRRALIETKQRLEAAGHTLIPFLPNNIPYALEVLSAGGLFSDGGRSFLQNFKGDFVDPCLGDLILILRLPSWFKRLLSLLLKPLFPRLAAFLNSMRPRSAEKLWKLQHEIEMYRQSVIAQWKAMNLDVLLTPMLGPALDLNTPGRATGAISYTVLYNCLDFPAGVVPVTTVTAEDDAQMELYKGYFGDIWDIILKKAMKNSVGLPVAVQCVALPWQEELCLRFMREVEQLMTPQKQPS
The experiment in a line: Brain FAAH activity after systemic (i.p.) administration. In kind it is in vivo. Particulars: ip, six experiments, read-out: half-maximal inhibition of brain FAAH activity (ID50).

Another assay in a line: Mouse formalin test. Type of assay: in vivo. The settings on record: dose not stated, data not shown. Here is the method:
We dissolved FAAH inhibitors in polyethyleneglycol/water (1/1) and rimonabant in saline. Formalin and hot-plate assays were carried out in the mouse, as described (Beltramo, M. et al., FEBS Lett., 403, 263-267 (1997)).
The compounds exerted, however, moderate antinociceptive effects in two models of acute pain.

The target of a further assay is T2, FAAH (Rattus norvegicus, UniProt P97612).
T2 sequence (P97612 1-579): T1 sequence (P97612 1-579)
Nature of the assay: biochemical. The arrangement: from tissue; host or cells: rat brain (membrane fraction of homogenate; Wistar rats). Type of assay: biochemical.

For assay [3], the target named is horse plasma butyryl cholinesterase (Equus caballus, UniProt P81908). Nature of the assay: Cholinesterase assay with commercial kit, purified enzyme.
horse plasma butyryl cholinesterase, sequence (P81908 whole entry): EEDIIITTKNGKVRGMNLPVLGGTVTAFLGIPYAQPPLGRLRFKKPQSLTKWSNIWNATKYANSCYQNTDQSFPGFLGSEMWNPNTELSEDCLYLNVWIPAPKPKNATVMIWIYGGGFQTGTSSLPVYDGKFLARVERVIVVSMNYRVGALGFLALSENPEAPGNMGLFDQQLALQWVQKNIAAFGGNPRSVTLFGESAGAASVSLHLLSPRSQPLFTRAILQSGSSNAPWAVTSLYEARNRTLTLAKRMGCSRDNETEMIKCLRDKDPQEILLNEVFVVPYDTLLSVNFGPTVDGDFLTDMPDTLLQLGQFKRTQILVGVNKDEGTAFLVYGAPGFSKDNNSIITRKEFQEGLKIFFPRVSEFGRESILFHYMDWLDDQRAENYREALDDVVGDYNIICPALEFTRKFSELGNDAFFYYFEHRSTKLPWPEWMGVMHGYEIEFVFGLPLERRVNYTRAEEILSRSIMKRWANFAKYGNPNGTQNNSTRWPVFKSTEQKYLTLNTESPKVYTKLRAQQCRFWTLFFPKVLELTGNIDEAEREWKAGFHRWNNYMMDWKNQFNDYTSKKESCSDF
From the text: We prepared cell fractions from rat brain homogenates, and assayed membrane FAAH activity and cytosol MGL activity using anandamide [ethanolamine-3H] (American Radiolabeled Chemicals, ARC (St. Louis Mo.), 60 Ci/mmol) and 2-mono-oleoyl-glycerol-[glycerol-1,2,3^−3H] (ARC, St. Louis Mo., 20 Ci/mmol), respectively, as substrates (Dinh, T. Proc. Natl. Acad. Sci. U.S.A. (2002)). We conducted [^3H]anandamide transport assays in human astrocytoma cells (Piomelli, D. et al., Proc. Natl. Acad. Sci. U.S.A., 96, 5802-5807 (1999)); CB1 and CB2 binding assays in rat cerebellar membranes and CB2-overexpressing Chinese hamster ovary cells (Receptor Biology-Perkin Elmer, Wellesley, Mass.), respectively, using [^3H]WIN-55212-2 (NEN-Dupont, Boston, Mass., 40-60 Ci/mmol) as a ligand (Devane, W. A. et al. Science, 258, 1946-1949 (1992)); cholinesterase assays with a commercial kit (Sigma, St. Louis, Mo.), using purified enzymes (electric eel acetylcholinesterase type V-S and horse serum cholinesterase; both from Sigma, St. Louis, Mo.) and following manufacturer's instructions.
Another assay can be described thus: Elevated zero maze test. In kind it is in vivo, rat. The settings on record: adult rats; i.p. 30 min before test; UCM532 5 and 10 mg kg-1; UCM597 0.05-0.1 mg kg-1. Here is the method: We dissolved FAAH inhibitors and rimonabant in dimethylsulfoxide (DMSO)/saline (7/3 and 9/1, respectively); we administered FAAH inhibitors by i.p. injection 30 min before tests and rimonabant 30 min before UCM532. The elevated zero maze was comprised of a black Perspex annular platform (105 cm diameter, 10 cm width) elevated to 65 cm above ground level, divided equally into four quadrants (Bickerdike, M. J. et al., Eur. J. Pharmacol., 271, 403-411 (1994); Shepherd, J. K. et al., Psychopharmacology, 116, 56-64 (1994)). […] We placed the rats in a closed quadrant and video recorded them for 5-min periods, thoroughly cleaning the maze between sessions. […] Results are expressed as percent time in open quadrant/total time (percent time open). Results were analyzed by one-way ANOVA followed by Tukey's test. We recorded motor activity of each rat in an Opto-Varimex cage (Columbus Instruments, Columbus, Ohio) linked on-line to a computer and placed in a sound-attenuated room illuminated by a 20-W white light. The amount of time spent in ambulatory activity was analyzed using an Auto-Track software (Columbus Instruments, Columbus, Ohio) as described elsewhere (Ali, M. M. et al., Neurosci. Lett., 284, 57-60 (2000); Wedzony, K. et al., Neuropsychopharmacology, 23, 547-559 (2000)). […] We analyzed data by overall one-way ANOVA followed by Tukey's test for individual between-group comparisons. […]

electric eel acetylcholinesterase, sequence (O42275 whole entry): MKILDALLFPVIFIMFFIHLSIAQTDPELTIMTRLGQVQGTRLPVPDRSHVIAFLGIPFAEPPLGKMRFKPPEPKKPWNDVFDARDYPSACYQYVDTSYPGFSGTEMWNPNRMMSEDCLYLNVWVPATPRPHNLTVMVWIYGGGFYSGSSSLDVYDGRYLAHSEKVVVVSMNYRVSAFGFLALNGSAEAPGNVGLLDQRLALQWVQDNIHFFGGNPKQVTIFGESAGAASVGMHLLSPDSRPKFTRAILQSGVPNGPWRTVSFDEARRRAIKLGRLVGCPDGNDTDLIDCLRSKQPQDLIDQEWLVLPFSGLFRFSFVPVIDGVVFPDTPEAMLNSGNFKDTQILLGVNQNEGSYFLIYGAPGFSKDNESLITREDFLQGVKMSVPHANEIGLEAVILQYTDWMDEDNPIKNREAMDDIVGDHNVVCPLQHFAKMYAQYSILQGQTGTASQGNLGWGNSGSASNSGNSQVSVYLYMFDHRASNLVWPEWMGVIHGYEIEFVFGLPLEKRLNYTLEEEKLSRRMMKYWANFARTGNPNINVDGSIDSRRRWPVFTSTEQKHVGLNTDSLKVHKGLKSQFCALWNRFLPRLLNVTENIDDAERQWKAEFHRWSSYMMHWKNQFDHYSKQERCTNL

As for `CCCCNC(=O)Oc1ccc(OCc2ccccc2)cc1` [UCM532, n-Butylcarbamic acid 4-benzyloxyphenyl ester], the “interaction with panel of 21 receptors, ion channels and transporters” value in assay [1] is on record as “did not significantly interact”. The IC50 (as a rule, the point on the concentration scale where inhibition reaches its midpoint) in assay [2] is more than 30000 nM; at FAAH (Table 3, read-out: Amidohydrolase IC50), 400 nM; at FAAH (Table 4, FAAH IC50, read-out: Inhibition of Amidohydrolase IC50) it was 300 nM; on FAAH (rat brain membranes, read-out: IC50) it was 396 ± 63 nM. Further, the ED50 on brain FAAH activity worked out at 0.6 ± 0.09 mg/kg. The “antinociceptive effect, formalin test, compared with UCM597” value in the assay “Mouse formalin test” is given as “mimicked, albeit less effectively”. The “mode of FAAH inhibition (kinetic analyses and dialysis experiments)” value at FAAH (data not shown) is given as “irreversible interaction”. Moreover, in assay [3], the “effect on butyryl cholinesterase activity (in words)” value is recorded as “did not affect”. The “BCh SI (maximal concentration tested/IC50 for FAAH)” value in assay [3] (Table 2) is given as “≧333”. Besides, the “BCh: maximal concentration of FAAH inhibitor tested” value in assay [3] (Table 2) is more than 100 µM. Also, in “Elevated zero maze test”, the “percent time open, elevated zero maze” value is “anxiolytic-like responses”.

The values are drawn from patent US20040127518A1, “Modulation of anxiety through blockade of anandamide hydrolysis” (priority 2002, published 2004).
